A value given as a limit tells only on which side of the number the result lay.

For orientation: IC50 means the midpoint of a concentration-inhibition curve. A high value points to lower potency.

Test [1] concerns the target Proto-oncogene tyrosine-protein kinase ROS (Homo sapiens) (UniProt P08922). Description: Selectivity interaction (Upstate Kinase Profiler service (Millipore)) EUB0000056c ROS1. Conditions: at 1 µM.
For test [2], the target named is Ephrin type-A receptor 5 (Homo sapiens) (UniProt P54756). The test can be described thus: Selectivity interaction (Kinase panel (DSF assay)) EUB0001558a EPHA5.
Test [3] has as its target T1, Serine/threonine-protein kinase LATS2 (Homo sapiens) (UniProt Q9NRM7).
T1 sequence (whole entry): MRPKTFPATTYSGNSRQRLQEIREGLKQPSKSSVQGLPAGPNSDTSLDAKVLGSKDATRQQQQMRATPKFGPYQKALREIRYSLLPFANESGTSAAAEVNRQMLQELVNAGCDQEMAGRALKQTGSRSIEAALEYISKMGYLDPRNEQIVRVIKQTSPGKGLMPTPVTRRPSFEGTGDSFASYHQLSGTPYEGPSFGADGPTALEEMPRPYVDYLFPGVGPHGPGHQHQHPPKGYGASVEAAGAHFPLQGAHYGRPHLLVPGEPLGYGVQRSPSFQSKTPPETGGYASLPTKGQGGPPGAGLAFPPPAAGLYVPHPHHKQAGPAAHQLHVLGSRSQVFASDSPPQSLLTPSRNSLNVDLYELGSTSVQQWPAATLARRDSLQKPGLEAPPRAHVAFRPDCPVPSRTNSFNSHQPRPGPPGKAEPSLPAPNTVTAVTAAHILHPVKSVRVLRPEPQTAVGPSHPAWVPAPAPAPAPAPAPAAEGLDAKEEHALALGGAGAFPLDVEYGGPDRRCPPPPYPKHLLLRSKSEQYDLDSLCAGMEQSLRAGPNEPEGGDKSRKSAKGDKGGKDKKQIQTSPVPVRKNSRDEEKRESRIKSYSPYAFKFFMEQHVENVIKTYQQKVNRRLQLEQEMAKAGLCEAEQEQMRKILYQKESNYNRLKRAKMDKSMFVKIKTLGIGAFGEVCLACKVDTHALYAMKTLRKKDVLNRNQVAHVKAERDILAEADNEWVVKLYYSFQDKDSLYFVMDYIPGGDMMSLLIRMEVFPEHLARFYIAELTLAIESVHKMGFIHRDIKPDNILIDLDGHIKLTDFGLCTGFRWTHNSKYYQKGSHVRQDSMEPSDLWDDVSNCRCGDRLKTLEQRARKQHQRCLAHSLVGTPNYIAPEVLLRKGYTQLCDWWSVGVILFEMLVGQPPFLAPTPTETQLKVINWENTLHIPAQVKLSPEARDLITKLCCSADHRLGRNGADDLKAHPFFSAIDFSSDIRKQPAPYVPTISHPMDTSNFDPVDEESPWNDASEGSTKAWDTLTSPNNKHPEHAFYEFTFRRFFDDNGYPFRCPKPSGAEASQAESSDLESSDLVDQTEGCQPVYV
The test can be described thus: Selectivity interaction (Ambit KINOMEscan and KiNATiv profiling in Jurkat cells) EUB0000090b LATS2. The test is classed as cell-based. The note with it: at 1 µM.

Test [4] has as its target T2, Phosphatidylinositol 5-phosphate 4-kinase type-2 gamma (Homo sapiens) (UniProt Q8TBX8).
T2 sequence (whole entry): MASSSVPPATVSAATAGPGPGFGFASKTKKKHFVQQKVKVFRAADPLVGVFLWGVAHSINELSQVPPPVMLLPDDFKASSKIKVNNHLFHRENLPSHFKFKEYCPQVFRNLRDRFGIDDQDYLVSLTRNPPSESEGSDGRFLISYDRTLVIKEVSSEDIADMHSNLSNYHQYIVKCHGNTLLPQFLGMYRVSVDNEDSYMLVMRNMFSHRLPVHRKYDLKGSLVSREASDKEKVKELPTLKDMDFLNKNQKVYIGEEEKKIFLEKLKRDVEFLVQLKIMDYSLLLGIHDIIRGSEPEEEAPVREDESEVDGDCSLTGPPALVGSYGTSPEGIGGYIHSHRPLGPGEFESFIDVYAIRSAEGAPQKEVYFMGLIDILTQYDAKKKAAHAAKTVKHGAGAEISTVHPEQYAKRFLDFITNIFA
Description: Selectivity interaction (KinomeScan (DiscoverX)) EUB0001079a PIP4K2C. The note with it: at 1 µM.

Test [5] deals with Protein kinase C eta type (Homo sapiens) (UniProt P24723). Description: Selectivity interaction (KinomeScan (DiscoverX)) EUB0000655a PRKCH. The note with it: at 10 µM.
Test [6] has as its target T3, Protein arginine N-methyltransferase 7 (Homo sapiens) (UniProt Q9NVM4).
T3 sequence (whole entry): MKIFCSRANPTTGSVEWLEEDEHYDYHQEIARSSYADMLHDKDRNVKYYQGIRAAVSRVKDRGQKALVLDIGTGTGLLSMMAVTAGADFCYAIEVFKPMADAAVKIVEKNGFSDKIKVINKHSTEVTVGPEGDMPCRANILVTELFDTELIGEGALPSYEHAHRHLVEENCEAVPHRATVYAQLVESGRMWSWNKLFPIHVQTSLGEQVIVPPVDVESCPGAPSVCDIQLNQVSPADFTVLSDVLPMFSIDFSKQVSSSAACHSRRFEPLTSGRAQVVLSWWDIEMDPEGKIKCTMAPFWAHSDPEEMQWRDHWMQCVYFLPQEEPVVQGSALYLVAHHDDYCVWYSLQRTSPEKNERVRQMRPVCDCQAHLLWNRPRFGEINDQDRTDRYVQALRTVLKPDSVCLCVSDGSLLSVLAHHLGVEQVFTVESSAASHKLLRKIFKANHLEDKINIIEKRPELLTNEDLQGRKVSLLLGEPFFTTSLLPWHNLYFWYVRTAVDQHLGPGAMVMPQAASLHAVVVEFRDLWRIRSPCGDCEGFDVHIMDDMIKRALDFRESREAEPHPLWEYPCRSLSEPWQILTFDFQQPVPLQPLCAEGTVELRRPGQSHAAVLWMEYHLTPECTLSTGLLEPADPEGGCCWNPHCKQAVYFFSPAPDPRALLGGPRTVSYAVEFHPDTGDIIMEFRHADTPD
Description: Selectivity interaction (Transferase panel (protein, RNA, and DNA methyltransferases. and EP300 (acetyltransferase))) EUB0000270b PRMT7.

Test [7] addresses Mitogen-activated protein kinase 8 (Homo sapiens, UniProt P45983). The test can be described thus: Selectivity interaction (Kinase panel (Invitrogen)) EUB0000639a MAPK8. The note with it: at 200 nM.
Test [8] addresses Death-associated protein kinase 3 (Homo sapiens) (UniProt O43293). Conditions: at 10 µM.
Test [9] deals with Mitogen-activated protein kinase 10 (Homo sapiens, UniProt P53779). Description: Selectivity interaction (Kinase panel (enzymatic assay)) EUB0000595a MAPK10.
Chain of Mitogen-activated protein kinase 10 (P53779 whole entry): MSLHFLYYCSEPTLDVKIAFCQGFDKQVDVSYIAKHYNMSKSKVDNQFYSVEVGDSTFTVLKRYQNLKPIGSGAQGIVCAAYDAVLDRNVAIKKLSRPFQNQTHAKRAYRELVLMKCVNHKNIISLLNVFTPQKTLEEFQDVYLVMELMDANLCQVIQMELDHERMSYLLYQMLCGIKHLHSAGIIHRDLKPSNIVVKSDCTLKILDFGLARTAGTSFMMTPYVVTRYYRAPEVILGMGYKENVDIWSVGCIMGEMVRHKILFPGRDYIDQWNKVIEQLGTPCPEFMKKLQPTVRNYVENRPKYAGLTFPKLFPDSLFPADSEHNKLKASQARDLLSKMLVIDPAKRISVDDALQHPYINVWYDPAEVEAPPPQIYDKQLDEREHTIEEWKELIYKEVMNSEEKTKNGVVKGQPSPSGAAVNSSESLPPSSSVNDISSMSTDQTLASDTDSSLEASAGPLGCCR

Chain of Ephrin type-A receptor 5 (Homo sapiens) (P54756 whole entry): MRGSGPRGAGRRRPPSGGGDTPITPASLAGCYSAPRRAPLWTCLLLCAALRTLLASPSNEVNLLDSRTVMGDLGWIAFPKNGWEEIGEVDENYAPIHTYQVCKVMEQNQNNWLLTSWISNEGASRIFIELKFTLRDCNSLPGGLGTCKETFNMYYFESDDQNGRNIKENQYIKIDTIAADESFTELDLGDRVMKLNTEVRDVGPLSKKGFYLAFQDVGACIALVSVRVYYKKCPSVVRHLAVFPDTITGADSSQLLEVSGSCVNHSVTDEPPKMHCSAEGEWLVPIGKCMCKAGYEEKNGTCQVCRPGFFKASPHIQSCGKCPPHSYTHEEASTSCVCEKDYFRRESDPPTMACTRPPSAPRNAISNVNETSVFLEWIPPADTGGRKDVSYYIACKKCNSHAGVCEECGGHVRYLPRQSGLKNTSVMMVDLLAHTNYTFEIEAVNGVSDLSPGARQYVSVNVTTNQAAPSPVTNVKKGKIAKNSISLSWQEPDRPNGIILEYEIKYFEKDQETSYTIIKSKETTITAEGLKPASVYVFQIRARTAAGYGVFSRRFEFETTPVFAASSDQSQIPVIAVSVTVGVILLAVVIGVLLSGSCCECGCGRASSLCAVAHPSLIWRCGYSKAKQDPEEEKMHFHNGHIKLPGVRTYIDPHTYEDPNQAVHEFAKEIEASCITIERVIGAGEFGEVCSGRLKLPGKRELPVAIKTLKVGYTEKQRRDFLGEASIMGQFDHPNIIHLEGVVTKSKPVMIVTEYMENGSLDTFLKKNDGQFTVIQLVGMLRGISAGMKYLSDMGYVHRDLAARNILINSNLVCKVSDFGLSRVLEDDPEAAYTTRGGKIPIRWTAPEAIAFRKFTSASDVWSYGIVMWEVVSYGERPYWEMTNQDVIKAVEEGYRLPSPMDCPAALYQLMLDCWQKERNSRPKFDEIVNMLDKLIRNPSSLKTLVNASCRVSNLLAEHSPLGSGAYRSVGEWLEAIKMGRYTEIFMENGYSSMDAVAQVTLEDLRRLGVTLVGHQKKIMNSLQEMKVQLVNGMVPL
Chain of Protein kinase C eta type (Homo sapiens) (P24723 whole entry): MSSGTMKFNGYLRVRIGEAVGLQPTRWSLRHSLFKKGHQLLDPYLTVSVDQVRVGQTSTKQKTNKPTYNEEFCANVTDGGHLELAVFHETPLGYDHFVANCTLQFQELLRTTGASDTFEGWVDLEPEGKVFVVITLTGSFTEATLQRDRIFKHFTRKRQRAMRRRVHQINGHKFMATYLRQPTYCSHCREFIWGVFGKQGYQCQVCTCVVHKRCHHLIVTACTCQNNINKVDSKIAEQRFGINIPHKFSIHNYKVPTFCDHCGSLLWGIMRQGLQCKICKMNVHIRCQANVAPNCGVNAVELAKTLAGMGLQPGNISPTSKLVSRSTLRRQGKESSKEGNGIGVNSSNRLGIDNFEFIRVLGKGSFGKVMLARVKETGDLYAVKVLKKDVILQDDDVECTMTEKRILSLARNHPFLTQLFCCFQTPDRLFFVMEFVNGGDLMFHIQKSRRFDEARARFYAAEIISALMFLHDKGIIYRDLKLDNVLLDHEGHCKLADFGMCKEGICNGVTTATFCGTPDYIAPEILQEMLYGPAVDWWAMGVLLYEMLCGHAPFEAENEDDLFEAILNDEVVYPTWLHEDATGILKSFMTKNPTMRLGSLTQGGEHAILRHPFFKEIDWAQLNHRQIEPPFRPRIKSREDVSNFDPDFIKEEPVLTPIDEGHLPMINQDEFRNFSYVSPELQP
Chain of Death-associated protein kinase 3 (Homo sapiens) (O43293 whole entry, looked up): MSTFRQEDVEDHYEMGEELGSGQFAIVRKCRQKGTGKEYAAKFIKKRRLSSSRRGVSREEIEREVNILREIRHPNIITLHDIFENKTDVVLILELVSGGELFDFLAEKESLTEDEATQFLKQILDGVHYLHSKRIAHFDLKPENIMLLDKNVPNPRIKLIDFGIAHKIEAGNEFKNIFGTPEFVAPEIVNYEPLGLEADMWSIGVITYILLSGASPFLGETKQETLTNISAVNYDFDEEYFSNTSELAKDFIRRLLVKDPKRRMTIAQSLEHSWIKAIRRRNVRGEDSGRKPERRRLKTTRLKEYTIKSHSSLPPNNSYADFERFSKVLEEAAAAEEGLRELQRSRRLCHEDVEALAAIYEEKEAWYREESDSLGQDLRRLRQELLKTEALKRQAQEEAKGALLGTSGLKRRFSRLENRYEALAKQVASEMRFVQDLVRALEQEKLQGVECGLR
Chain of Proto-oncogene tyrosine-protein kinase ROS (Homo sapiens) (P08922 whole entry): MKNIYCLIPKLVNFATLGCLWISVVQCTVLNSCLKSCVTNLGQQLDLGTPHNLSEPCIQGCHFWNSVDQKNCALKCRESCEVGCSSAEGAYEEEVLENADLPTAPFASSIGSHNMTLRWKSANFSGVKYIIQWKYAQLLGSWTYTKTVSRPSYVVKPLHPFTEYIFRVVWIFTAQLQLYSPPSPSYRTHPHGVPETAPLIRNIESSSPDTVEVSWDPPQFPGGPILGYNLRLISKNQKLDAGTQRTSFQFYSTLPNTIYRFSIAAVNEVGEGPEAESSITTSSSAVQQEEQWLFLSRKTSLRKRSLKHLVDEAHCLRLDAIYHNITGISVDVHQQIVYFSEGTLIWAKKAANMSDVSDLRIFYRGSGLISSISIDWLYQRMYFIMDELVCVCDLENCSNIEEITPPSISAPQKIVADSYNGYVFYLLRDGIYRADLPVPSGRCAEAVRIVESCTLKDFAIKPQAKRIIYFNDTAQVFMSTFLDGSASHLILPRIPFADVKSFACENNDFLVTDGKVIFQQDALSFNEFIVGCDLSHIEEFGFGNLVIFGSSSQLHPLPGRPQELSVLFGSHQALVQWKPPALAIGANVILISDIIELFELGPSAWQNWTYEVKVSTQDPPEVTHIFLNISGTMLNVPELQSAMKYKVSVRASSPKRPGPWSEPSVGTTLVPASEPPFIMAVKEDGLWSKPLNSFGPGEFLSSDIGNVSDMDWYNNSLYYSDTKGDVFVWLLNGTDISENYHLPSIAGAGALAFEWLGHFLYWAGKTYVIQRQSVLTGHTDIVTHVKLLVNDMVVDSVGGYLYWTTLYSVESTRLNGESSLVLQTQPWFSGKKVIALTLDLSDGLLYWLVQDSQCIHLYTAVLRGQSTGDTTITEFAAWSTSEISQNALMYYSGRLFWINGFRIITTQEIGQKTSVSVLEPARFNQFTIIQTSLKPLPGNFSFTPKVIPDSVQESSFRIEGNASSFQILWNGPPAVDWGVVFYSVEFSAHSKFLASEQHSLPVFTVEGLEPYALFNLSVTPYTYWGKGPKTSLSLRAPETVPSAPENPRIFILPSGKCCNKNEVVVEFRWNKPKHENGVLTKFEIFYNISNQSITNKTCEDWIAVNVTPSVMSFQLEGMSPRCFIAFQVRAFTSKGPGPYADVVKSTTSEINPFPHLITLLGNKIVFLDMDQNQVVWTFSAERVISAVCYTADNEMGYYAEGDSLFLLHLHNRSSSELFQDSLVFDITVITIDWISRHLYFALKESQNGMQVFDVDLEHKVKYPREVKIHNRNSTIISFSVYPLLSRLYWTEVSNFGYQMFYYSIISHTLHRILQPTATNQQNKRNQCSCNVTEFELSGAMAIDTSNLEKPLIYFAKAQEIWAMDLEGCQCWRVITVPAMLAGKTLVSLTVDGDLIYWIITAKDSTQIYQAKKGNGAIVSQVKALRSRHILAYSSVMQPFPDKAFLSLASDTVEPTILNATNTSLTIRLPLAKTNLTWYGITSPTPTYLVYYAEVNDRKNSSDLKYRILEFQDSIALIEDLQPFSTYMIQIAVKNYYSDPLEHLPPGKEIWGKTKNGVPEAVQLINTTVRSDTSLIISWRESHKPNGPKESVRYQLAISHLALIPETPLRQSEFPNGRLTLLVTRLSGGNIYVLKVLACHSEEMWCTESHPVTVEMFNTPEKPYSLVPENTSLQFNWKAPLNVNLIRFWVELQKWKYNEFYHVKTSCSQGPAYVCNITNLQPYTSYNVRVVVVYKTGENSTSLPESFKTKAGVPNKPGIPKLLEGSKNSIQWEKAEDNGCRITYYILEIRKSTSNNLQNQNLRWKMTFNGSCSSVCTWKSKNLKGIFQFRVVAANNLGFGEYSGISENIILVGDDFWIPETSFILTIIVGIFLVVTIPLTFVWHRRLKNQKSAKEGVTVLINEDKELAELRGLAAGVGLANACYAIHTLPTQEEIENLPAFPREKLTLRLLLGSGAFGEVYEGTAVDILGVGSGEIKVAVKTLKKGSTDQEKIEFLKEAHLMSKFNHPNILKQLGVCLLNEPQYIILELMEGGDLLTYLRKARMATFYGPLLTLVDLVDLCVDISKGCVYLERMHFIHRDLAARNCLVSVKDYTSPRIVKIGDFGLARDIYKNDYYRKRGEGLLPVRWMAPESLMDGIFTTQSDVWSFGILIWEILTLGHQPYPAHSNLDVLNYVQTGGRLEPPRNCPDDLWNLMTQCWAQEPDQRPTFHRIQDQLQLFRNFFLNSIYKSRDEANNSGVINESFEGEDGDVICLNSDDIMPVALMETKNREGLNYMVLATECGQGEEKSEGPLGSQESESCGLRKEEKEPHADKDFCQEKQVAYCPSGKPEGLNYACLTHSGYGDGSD

Turning to `Cc1ccc(-c2ccc3c(ccc4sc5c(c43)NC[C@@H](C)NC5=O)n2)cn1`, the % of inhibition in test [1] was -15%.
Turning to `CC(C)(O)[C@H](F)CN1Cc2cc(NC(=O)c3cnn4cccnc34)c(N3CCOCC3)cc2C1=O`, in [2], the dTM was 2.4 K.
In test [3], `CN(C)C/C=C/C(=O)Nc1ccc(C(=O)N2CCCC(Nc3ncc(Cl)c(-c4c[nH]c5ccccc45)n3)C2)cc1` (stereo not given) showed a % of control of 100%.
Compound `Nc1cnc(N2CCc3cc(S(=O)(=O)Nc4c(F)cc(Cl)cc4F)cc(N4CCCC4=O)c32)nc1` [TP-020n] had a % of control in [4] of 100%.
The compound `CN(C)CCOc1ccc(-c2nc(-c3ccncc3)c(-c3ccc4c(c3)CC/C4=N\O)[nH]2)cc1` came in with a % of control in [5] of 100%.
In the case of `Cc1cc(CN)cc(C)c1-c1ncn(C)c1-c1cncn1C`, the % activity was > 90% in [6] (at 1 µM) and > 80% in test [6] (at 10 µM).
Regarding `CC[C@@H]1[C@H](F)C(=O)N[C@@H]1COc1nccc2cc(C(N)=O)c(OC)cc12` [ZIMLOVISERTIB], the % of inhibition in test [7] is -0.665%.
As for `COCC(=O)NC/C=C/c1ccc2ncnc(Nc3ccc(Oc4ccc(C)nc4)c(C)c3)c2c1` [CP-724714], in test [8], the % of control came out at 96%. In addition, the IC50 in test [9] was > 10 µM.

For the origin of these results see ChEMBL document CHEMBL5465560, “Selectivity Literature for EUbOPEN Chemogenomic Library” (2024).
